Tests used:
Format in all cases: cell-based
TYK2 [1] = biological target: T1, TYK2 (Homo sapiens, UniProt P29597); assay: TYK2 degradation MSD assay in human PBMC cells; parameters: endogenous in cells; host or cells: human PBMC; settings: 4 to 24 hours incubation, read-out: TYK2 MSD DC50 rating in human PBMC
Method: (§1) Example 3. TYK2 Degradation MSD Assay in EBV-B, OCI-LY10, and Human PBMC Cells
(§2) Degradation of TYK2 in cells was quantitatively measured using Meso Scale Discovery (MSD) technology. EBV-B, OCI-LY10 or human PBMC cells were seeded in 96-well plates with a density of 0.4 million cells per well in 100 μl fresh media. Compounds were then added to the assay plates with a final top concentration of 1 to 10 μM in a 1:3 dilution series with total of 9 doses. The assay plates were then incubated for 4 to 24 hours at 37° C. under 5% CO2. The assay plates were then centrifuged for 5 minutes, and the cell pellets were treated with 100 μl/well RIPA lysis buffer (Boston Bioproducts, BP-115D) with protease and phosphatase inhibitors (Roche, 05892791001 and 04906837001). To prepare MSD assay plates (MSD, L15XA), the plates were coated with the capture antibody (Santa Cruz Biotechnology, SC-5271) in PBS, at 40 μl/well. The plates were then incubated overnight at 4° C., washed 3 times with 150 μl/well TBST buffer (Cell Signaling Technology, 9997S) and blocked with 150 μl/well blocking buffer (MSD, R93BA-4). Cell lysates were then added to MSD assay plates and the plates were incubated at room temperature for 1 hour. The plates were then washed 3 times with 150 μl/well TBST buffer and 25 μl/well primary detection antibody (Cell Signaling Technology, #9312). The assay plates were then incubated at room temperature for 1 hour, washed 3 times with 150 μl/well TBST buffer, and 25 μl/well secondary detection antibody, SULFO-TAG anti-rabbit antibody (MSD, R32AB-1) were added. The assay plates were then incubated at room temperature for 1 hour, washed 3 times with 150 μl/well TBST buffer, and 150 μl/well MSD reading buffer (MSD, R92TC-2) were added. The plates were then analyzed by an MSD reader. The data was analyzed by GraphPad Prism and the dose dependent TYK2 degradation was fit using the four-parameter inhibitor vs. response nonlinear regression. The DC50 data were measured and categorized into different levels in Table H. The compound with DC50 less than or equal to 1 nM is marked as A, with DC50 more than 1 nM and less than or equal to 10 nM is marked as B, with DC50 more than 10 nM and less than or equal to 100 nM is marked as C, and with DC50 more than 100 nM or not available is marked as D.

TYK2 [2] = biological target: T1, TYK2; assay: TYK2 degradation MSD assay in EBV-B cells; parameters: endogenous in cells; host or cells: EBV-B cells; settings: 4 to 24 hours incubation, read-out: TYK2 MSD DC50 rating in EBV-B
Method: as §1, §2

TYK2 [3] = biological target: T1, TYK2; assay: TYK2 degradation MSD assay in OCI-LY10 cells; parameters: endogenous in cells; host or cells: EBV-B cells; settings: 4 to 24 hours incubation, read-out: TYK2 MSD DC50 rating in OCI-LY10
Method: as §1, §2

T1 sequence (P29597 whole entry): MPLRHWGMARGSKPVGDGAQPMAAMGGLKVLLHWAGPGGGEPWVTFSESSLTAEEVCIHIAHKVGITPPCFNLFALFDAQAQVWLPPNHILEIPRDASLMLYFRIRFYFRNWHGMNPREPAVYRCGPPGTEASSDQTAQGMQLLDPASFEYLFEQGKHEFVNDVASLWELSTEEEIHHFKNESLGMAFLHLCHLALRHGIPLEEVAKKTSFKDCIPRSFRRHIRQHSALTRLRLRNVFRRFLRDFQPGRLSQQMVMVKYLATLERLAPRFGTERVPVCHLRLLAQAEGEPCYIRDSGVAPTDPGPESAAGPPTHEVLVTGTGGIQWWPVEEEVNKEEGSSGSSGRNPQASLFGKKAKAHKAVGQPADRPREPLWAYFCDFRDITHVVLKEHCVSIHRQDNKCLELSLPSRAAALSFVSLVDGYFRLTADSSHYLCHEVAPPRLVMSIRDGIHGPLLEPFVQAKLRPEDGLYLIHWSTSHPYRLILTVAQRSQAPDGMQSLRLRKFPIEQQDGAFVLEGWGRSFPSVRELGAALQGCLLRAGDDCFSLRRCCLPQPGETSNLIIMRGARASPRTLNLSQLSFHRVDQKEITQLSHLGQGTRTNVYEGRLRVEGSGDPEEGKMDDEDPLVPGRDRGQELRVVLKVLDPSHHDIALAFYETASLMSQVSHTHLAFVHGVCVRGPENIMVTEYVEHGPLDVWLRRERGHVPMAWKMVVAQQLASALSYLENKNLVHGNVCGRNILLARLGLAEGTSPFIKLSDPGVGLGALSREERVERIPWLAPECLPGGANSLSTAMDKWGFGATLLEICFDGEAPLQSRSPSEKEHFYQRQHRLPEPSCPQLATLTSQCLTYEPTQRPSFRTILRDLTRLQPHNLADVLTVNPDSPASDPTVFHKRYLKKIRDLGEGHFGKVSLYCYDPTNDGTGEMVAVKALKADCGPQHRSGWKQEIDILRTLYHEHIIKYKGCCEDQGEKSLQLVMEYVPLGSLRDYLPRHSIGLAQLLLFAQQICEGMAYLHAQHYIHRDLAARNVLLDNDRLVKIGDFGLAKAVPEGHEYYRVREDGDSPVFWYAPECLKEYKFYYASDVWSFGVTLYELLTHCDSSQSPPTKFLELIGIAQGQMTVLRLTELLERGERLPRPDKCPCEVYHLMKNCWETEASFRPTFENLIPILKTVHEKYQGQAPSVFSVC

Row | SMILES | DC50 (TYK2 [1]) [nM] | DC50 (TYK2 [2]) [nM] | DC50 (TYK2 [3]) [nM]
1 | CNC(=O)c1cnc(Nc2ccc(CN(C)C3CCCN(c4cccc5c4n(C)c(=O)n5C4CCC(=O)NC4=O)C3)cn2)cc1Nc1cccc(-c2ncc(F)cn2)c1OC (stereo not drawn) [Example K162] | > 100 | 1 to 10 | > 100
2 | CNC(=O)c1cnc(Nc2ccc(CN3CC(N(C)c4ccc5c(c4)n(C)c(=O)n5C4CCC(=O)NC4=O)C3)cn2)cc1Nc1cccc(-c2ncc(F)cn2)c1OC (stereo not drawn) [Example K163] | > 100 | > 100 | > 100
3 | CNC(=O)c1cnc(Nc2ccc(CN3CCC(N(C)c4ccc5c(c4)n(C)c(=O)n5C4CCC(=O)NC4=O)C3)cn2)cc1Nc1cccc(-c2ncc(F)cn2)c1OC (stereo not drawn) [Example K164] | > 100 | < 1 | > 100
4 | CNC(=O)c1cnc(Nc2ccc(CN3CCC(c4cccc5c4n(C)c(=O)n5C4CCC(=O)NC4=O)C3)cn2)cc1Nc1cccc(-c2ncc(F)cn2)c1OC (stereo not drawn) [Example K165] | > 100 | 1 to 10 | > 100
5 | CNC(=O)c1cnc(Nc2ccc(CN3CCC(c4ccc5c(c4)n(C)c(=O)n5C4CCC(=O)NC4=O)C3)cn2)cc1Nc1cccc(-c2ncc(F)cn2)c1OC (stereo not drawn) [Example K166] | > 100 | < 1 | > 100
6 | CNC(=O)c1cnc(Nc2ccc(CN3CCC(c4cccc5c4n(C)c(=O)n5C4CCC(=O)NC4=O)CC3)cn2)cc1Nc1cccc(-c2ncc(F)cn2)c1OC (stereo not drawn) [Example K167] | > 100 | < 1 | > 100
7 | CNC(=O)c1cnc(Nc2ccc(CN3CCCC(c4ccc5c(c4)n(C)c(=O)n5C4CCC(=O)NC4=O)C3)cn2)cc1Nc1cccc(-c2ncc(F)cn2)c1OC (stereo not drawn) [Example K168] | > 100 | > 100 | > 100
8 | CCNC(=O)c1cnc(Nc2ccc(C(=O)N(C)C3CCN(c4cccc5c4n(C)c(=O)n5C4CCC(=O)NC4=O)CC3)cn2)cc1Nc1cccc(-c2ncc(F)cn2)c1OC (stereo not drawn) [Example K169] | > 100 | 1 to 10 | > 100
9 | CNC(=O)c1cnc(Nc2ccc(CN(C)C3CCN(c4ccc5c(c4)n(C)c(=O)n5C4CCC(=O)NC4=O)C3)cn2)cc1Nc1cccc(-c2ncc(F)cn2)c1OC (stereo not drawn) [Example K170] | > 100 | < 1 | > 100
10 | CNC(=O)c1cnc(Nc2ccc(CN(C)C3CCN(c4cccc5c4n(C)c(=O)n5C4CCC(=O)NC4=O)C3)cn2)cc1Nc1cccc(-c2ncc(F)cn2)c1OC (stereo not drawn) [Example K171] | > 100 | < 1 | > 100
11 | CNC(=O)c1cnc(Nc2ccc(CN3CCC(c4ccc5c(c4)n(C)c(=O)n5C4CCC(=O)NC4=O)CC3)cn2)cc1Nc1cccc(-c2ncc(F)cn2)c1OC (stereo not drawn) [Example K172] | > 100 | < 1 | > 100
12 | CNC(=O)c1cnc(Nc2ccc(CN3CCN(c4cccc5c4n(C)c(=O)n5C4CCC(=O)NC4=O)CC3)cn2)cc1Nc1cccc(-c2ncc(F)cn2)c1OC (stereo not drawn) [Example K173] | > 100 | < 1 | > 100
13 | CNC(=O)c1cnc(Nc2ccc(C3CCN(Cc4cccc5c4n(C)c(=O)n5C4CCC(=O)NC4=O)CC3)cn2)cc1Nc1cccc(-c2ncc(F)cn2)c1OC (stereo not drawn) [Example K174] | > 100 | 1 to 10 | > 100

The next lines start with the values.

Row | DC50 (TYK2 [1]) [nM] | DC50 (TYK2 [2]) [nM] | DC50 (TYK2 [3]) [nM] | SMILES
14 | < 1 | > 100 | < 1 | CNC(=O)c1cnc(Nc2ccc(CN(C)C3CN(c4cccc5c4n(C)c(=O)n5C4CCC(=O)NC4=O)C3)cn2)cc1Nc1cccc(-c2ncc(F)cn2)c1OC (stereo not drawn) [Example K154]
15 | < 1 | < 1 | > 100 | CNC(=O)c1cnc(Nc2ccc(CN(C)C3CCN(c4ccc5c(c4)n(C)c(=O)n5C4CCC(=O)NC4=O)CC3)cn2)cc1Nc1cccc(-c2ncc(F)cn2)c1OC (stereo not drawn) [Example K155]
16 | > 100 | > 100 | > 100 | CNC(=O)c1cnc(Nc2ccc(CN3CCCC(c4cccc5c4n(C)c(=O)n5C4CCC(=O)NC4=O)C3)cn2)cc1Nc1cccc(-c2ncc(F)cn2)c1OC (stereo not drawn) [Example K156]
17 | > 100 | < 1 | > 100 | CNC(=O)c1cnc(Nc2ccc(CN(C)CCCOC3CCN(c4ccc5c(c4)n(C)c(=O)n5C4CCC(=O)NC4=O)CC3)cn2)cc1Nc1cccc(-c2ncc(F)cn2)c1OC (stereo not drawn) [Example K157]
18 | > 100 | < 1 | > 100 | CNC(=O)c1cnc(Nc2ccc(CN(C)CCCOC3CC(c4cccc5c4n(C)c(=O)n5C4CCC(=O)NC4=O)C3)cn2)cc1Nc1cccc(-c2ncc(F)cn2)c1OC (stereo not drawn) [Example K158]
19 | > 100 | < 1 | > 100 | CNC(=O)c1cnc(Nc2ccc(CN3CCC(OC4CC(c5ccc6c(c5)n(C)c(=O)n6C5CCC(=O)NC5=O)C4)CC3)cn2)cc1Nc1cccc(-c2ncc(F)cn2)c1OC (stereo not drawn) [Example K159]
20 | > 100 | < 1 | > 100 | CNC(=O)c1cnc(Nc2ccc(CN(C)C3CCCN(c4ccc5c(c4)n(C)c(=O)n5C4CCC(=O)NC4=O)C3)cn2)cc1Nc1cccc(-c2ncc(F)cn2)c1OC (stereo not drawn) [Example K160]
21 | > 100 | 1 to 10 | > 100 | CNC(=O)c1cnc(Nc2ccc(CN3CC(N(C)c4cccc5c4n(C)c(=O)n5C4CCC(=O)NC4=O)C3)cn2)cc1Nc1cccc(-c2ncc(F)cn2)c1OC (stereo not drawn) [Example K161]
22 | < 1 | < 1 | > 100 | CNC(=O)c1cnc(Nc2ccc(CN3CCC(N(C)c4ccc5c(c4)n(C)c(=O)n5C4CCC(=O)NC4=O)CC3)cn2)cc1Nc1cccc(-c2ncc(F)cn2)c1OC (stereo not drawn) [Example K175]
23 | < 1 | 1 to 10 | > 100 | CNC(=O)c1cnc(Nc2cc(CN3CCN(c4cccc5c4n(C)c(=O)n5C4CCC(=O)NC4=O)CC3)ccn2)cc1Nc1cccc(-c2ncc(F)cn2)c1OC (stereo not drawn) [Example K176]
24 | < 1 | < 1 | > 100 | CNC(=O)c1cnc(Nc2ccc(CN3CCN(c4ccc5c(c4)n(C)c(=O)n5C4CCC(=O)NC4=O)CC3)cn2)cc1Nc1cccc(-c2ncc(F)cn2)c1OC (stereo not drawn) [Example K177]
25 | < 1 | < 1 | > 100 | CNC(=O)c1cnc(Nc2ccc(C(=O)N(C)C3CCN(c4ccc5c(c4)n(C)c(=O)n5C4CCC(=O)NC4=O)CC3)cn2)cc1Nc1cccc(-c2ncc(F)cn2)c1OC (stereo not drawn) [Example K178]
26 | 10 to 100 | > 100 | > 100 | COc1c(Nc2cc(Nc3cc(C(=O)NCCCCc4cccc5c4n(C)c(=O)n5C4CCC(=O)NC4=O)ccn3)ncc2C(=O)NC2CC2)cccc1-c1ncc(F)cn1 (stereo not drawn) [Example K179]
27 | 1 to 10 | 10 to 100 | > 100 | COc1c(Nc2cc(Nc3ccc(C(=O)NCCCCc4cccc5c4n(C)c(=O)n5C4CCC(=O)NC4=O)cn3)ncc2C(=O)NC2CC2)cccc1-c1ncc(F)cn1 (stereo not drawn) [Example K180]
28 | 1 to 10 | > 100 | > 100 | CCNC(=O)c1cnc(Nc2cc(C(=O)NCCCCc3cccc4c3n(C)c(=O)n4C3CCC(=O)NC3=O)ccn2)cc1Nc1cccc(-c2ncc(F)cn2)c1OC (stereo not drawn) [Example K181]
29 | 1 to 10 | 10 to 100 | > 100 | CCNC(=O)c1cnc(Nc2ccc(C(=O)NCCCCc3cccc4c3n(C)c(=O)n4C3CCC(=O)NC3=O)cn2)cc1Nc1cccc(-c2ncc(F)cn2)c1OC (stereo not drawn) [Example K182]
30 | 1 to 10 | > 100 | > 100 | CNC(=O)c1cnc(NC(=O)NCCCCCCCCCc2cccc3c2n(C)c(=O)n3C2CCC(=O)NC2=O)cc1Nc1cccc(-c2ncc(F)cn2)c1OC (stereo not drawn) [Example K183]
31 | 1 to 10 | > 100 | > 100 | CNC(=O)c1cnc(NC(=O)NCCCCCCCCc2cccc3c2n(C)c(=O)n3C2CCC(=O)NC2=O)cc1Nc1cccc(-c2ncc(F)cn2)c1OC (stereo not drawn) [Example K184]
32 | 1 to 10 | > 100 | > 100 | CNC(=O)c1cnc(NC(=O)NCCCCCCCc2cccc3c2n(C)c(=O)n3C2CCC(=O)NC2=O)cc1Nc1cccc(-c2ncc(F)cn2)c1OC (stereo not drawn) [Example K185]
